# According to patent publication EP4725957A1, “GROUP OF CYCLIC ALKALINE LIPOPEPTIDE COMPOUNDS, AND PREPARATION METHOD THEREFOR AND USE THEREOF” (Institute of Medicinal Biotechnology, Chinese Academy of …, priority 2023, dated 2024):
# Bridge positions count the residues as written; N and C are the ends. Square brackets hold non-standard residues; d marks the D form. Peptide text beside a SMILES is read from it. * marks the point of attachment. Heptanoyl(6-Me) = CC(C)CCCCC(=O)*; Dab = NCC[C@H](N)C(=O)O; Dap = NC[C@H](N)C(=O)O
# System: Pseudomonas aeruginosa ATCC27853
# Experiment: In vivo antibacterial (protection) test in infected mice
# Conditions: infected ICR mice; for mortality rate: 7 days observation
# From the text: Pseudomonas aeruginosa ATCC27853 was selected for the determination of in vivo antibacterial activity.
# One day before infection, the test bacteria were inoculated onto the corresponding nutrient agar plates and cultured overnight. On the day of infection, single colonies grown on the plates were picked and suspended in sterile normal saline, and the suspension was mixed thoroughly to obtain the original bacterial solution. The bacterial solution was then adjusted to the required concentration with 5% dried yeast powder and prepared freshly prior to use.
# Healthy ICR mice were randomly divided into groups, with 5 mice per group, half male and half female. Bacterial solutions of different dilutions were aspirated and injected intraperitoneally into mice at a volume of 0.5 mL per 20 g of body weight. The mortality of mice was recorded within 7 days after infection. The minimum bacterial dose causing 100% mortality in mice was defined as the minimum lethal dose (MLD), which was used as the infection dose for the in vivo protection test.
# Drug administration was performed via tail vein injection at 2 h, 8 h, 24 h, and 30 h after infection, with a total of 4 administrations, and the administration volume was 20 mL/kg. For the preparation of drug solutions, Compound 7, together with the control drugs polymyxin B and meropenem, were dissolved in normal saline to the required concentrations for tail vein injection, and all solutions were prepared freshly prior to use.
# In the preliminary test, the drug dose concentrations that caused 100% mortality and no mortality in mice after infection with the tested bacteria were determined. Based on this dose range, 4-5 dose groups were established, with a dose ratio of 1:0.5 to 1:0.8 between adjacent groups.
# Mice were randomly grouped according to body weight, with 8 mice per group (half male and half female). Each mouse was intraperitoneally infected with the test bacterial solution at a volume of 0.5 mL per 20 g of body weight, followed by tail vein injection at 2 h, 8 h, 24 h, and 30 h after infection. Mice in the blank control group were not infected with bacterial solution but were only given an equal volume of vehicle at an administration volume of 20 mL/kg. The mortality of mice was observed and recorded for 7 consecutive days.
# The minimum lethal bacterial concentration of Pseudomonas aeruginosa ATCC27853 for intraperitoneal infection in mice was 4.2 × 10^2 CFU/mL, which was used as the infection dose in the formal test.
# Mice in the infection control group were intraperitoneally inoculated with Pseudomonas aeruginosa ATCC27853 bacterial solution at the MLD concentration ([…]). Infection symptoms began to appear 3-4 hours after inoculation, and all 8 animals died within 48 hours (8/8), with a mortality rate of 100%.
# [1] = tail vein twice daily for 2 days, Bliss method
structure (smiles),measurement,setting,value
"CC(C)CCCCC(=O)N[C@@H](CCN)C(=O)N[C@H](C(=O)N[C@@H](CN)C(=O)N[C@H]1CCNC(=O)[C@H]([C@@H](C)O)NC(=O)[C@H](CCN)NC(=O)[C@H](CCN)NC(=O)[C@H]([C@@H](C)O)NC(=O)[C@@H](Cc2ccccc2)NC(=O)[C@H](CCN)NC1=O)[C@@H](C)O [Compound 7, 6-methylheptanoyl-Dab-Thr-Dap-ring(4-10)[Dab-Dab-D-Phe-Thr-Dab-Dab-Thr]] ({Heptanoyl(6-Me)}-[Dab]T[Dap][Dab][Dab][dF]T[Dab][Dab]T; lactam 4-C)",mortality rate,3.4 mg/kg tail vein twice daily for 2 days,100%
same,mortality rate,4.9 mg/kg tail vein twice daily for 2 days,87.5%
same,mortality rate,7 mg/kg tail vein twice daily for 2 days,37.5%
same,mortality rate,10 mg/kg tail vein twice daily for 2 days,0%
same,ED5,[1],4.54 mg/kg
same,ED50,[1],6.38 mg/kg
same,ED95,[1],8.96 mg/kg
